Assay [1] addresses T1, Uba6 SCCH domain (Homo sapiens, UniProt A0AVT1).
T1 construct: standalone SCCH domain, residues 615-892, E. coli, SMT3 tag cleaved by ULP1
T1 sequence (A0AVT1 615-892): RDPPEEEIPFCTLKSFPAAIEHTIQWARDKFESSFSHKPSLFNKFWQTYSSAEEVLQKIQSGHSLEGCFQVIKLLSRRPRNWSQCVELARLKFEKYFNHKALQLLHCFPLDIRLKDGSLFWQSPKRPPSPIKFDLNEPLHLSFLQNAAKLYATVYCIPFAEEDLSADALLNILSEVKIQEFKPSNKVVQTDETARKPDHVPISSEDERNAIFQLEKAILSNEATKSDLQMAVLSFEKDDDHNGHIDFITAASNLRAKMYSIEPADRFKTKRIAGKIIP
Nature of the assay: thermal shift assay (SYPRO Orange). The assay is classed as binding. The settings on record: ~43 °C without ligand, 20 mM HEPES pH 7.5, 150 mM NaCl, 0.25 mM TCEP, E. coli-derived.

Assay [2] has as its target T2, Uba6 (Uba6_Apo; Uba6_WT) (Homo sapiens, UniProt A0AVT1).
T2 construct: residues 37-1052; crystal from insect cells, His tag cleaved by TEV, C625A
T2 sequence (A0AVT1 37-1052): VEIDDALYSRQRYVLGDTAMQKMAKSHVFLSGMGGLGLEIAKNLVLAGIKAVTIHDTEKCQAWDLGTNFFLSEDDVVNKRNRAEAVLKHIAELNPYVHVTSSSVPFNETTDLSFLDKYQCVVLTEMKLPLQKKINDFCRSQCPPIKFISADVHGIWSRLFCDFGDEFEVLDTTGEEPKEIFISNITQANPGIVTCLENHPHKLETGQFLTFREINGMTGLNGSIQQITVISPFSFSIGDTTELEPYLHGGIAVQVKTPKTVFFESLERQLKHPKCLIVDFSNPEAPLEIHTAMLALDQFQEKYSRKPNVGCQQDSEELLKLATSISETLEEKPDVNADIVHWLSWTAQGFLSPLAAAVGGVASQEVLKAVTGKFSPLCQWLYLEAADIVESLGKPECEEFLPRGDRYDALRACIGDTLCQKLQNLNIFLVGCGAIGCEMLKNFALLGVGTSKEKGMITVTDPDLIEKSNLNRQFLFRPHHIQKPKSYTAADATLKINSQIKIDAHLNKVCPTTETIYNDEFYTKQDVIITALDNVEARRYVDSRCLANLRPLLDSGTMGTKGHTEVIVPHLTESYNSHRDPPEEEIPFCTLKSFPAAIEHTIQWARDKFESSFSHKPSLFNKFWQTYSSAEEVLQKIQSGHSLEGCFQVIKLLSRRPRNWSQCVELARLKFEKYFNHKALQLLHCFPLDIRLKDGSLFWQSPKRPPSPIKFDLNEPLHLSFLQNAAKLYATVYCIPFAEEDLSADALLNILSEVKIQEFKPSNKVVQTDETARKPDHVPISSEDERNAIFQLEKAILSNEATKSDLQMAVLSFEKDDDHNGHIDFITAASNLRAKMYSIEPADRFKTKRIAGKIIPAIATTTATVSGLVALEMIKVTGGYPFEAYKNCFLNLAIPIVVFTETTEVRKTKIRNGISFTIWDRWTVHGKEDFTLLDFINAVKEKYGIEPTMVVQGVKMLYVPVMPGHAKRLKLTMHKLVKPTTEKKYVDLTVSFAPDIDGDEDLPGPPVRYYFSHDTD
Briefly: isothermal titration calorimetry. The assay is classed as binding. Background: In ITC the heat of successive injections is recorded.

For assay [3], the target named is T3, Uba1 (Uba1_WT) (Homo sapiens, UniProt P22314).
T3 construct: E. coli-produced Uba1; a Uba1 SCCH domain (625-892) was also made and may be the ITC sample
T3 sequence (P22314 2-1058): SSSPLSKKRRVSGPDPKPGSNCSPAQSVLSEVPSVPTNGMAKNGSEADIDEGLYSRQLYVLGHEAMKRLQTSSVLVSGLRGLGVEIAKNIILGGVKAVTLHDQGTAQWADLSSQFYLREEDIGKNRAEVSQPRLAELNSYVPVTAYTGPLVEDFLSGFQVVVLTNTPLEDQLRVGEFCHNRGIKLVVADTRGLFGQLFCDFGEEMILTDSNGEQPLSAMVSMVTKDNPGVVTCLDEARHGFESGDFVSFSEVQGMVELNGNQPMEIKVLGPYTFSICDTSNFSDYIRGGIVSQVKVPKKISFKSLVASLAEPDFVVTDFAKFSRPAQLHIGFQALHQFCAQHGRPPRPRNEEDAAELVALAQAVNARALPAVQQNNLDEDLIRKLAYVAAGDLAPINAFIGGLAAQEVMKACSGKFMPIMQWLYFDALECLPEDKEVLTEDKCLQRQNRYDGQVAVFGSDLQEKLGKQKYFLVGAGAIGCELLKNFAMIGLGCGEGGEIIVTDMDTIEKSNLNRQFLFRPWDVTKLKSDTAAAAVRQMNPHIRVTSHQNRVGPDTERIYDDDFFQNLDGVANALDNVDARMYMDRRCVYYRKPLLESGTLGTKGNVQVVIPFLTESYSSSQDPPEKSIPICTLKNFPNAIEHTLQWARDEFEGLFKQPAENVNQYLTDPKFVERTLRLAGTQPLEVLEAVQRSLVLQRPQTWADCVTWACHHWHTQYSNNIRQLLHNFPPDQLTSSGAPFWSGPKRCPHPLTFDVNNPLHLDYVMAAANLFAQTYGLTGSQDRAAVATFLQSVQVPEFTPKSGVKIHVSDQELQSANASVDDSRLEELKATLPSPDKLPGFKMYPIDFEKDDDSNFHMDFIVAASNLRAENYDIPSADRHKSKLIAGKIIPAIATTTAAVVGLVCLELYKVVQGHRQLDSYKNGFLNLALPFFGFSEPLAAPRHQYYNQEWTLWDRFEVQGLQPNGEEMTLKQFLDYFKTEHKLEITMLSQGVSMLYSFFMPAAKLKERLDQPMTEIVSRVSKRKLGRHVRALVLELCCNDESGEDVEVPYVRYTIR
Nature of the assay: gel-based Uba1~Ub thioester formation, […] s. The assay is classed as biochemical. The settings on record: ubiquitin 2.5 μM, 0-50 μM InsP6, 100 nM E1, 500 μM ATP, 5 mM MgCl2, pH 7.4, RT.

In assay [4] the target is T2, Uba6 (Uba6_Apo; Uba6_WT). Nature of the assay: binding test, method not given.

SMILES strings stand for the structures. pKd: −log10 of the molar value.

In the case of `O=P(O)(O)O[C@@H]1[C@@H](OP(=O)(O)O)[C@H](OP(=O)(O)O)[C@H](O)[C@H](OP(=O)(O)O)[C@H]1OP(=O)(O)O` [InsP5, D-myo-Inositol 1,3,4,5,6-pentakisphosphate], the melting temperature in assay [1] (100 μM InsP5) amounted to 54 °C. The same molecule showed a pKd in assay [2] of 7.14.
With `O=P(O)(O)O[C@H]1[C@H](OP(=O)(O)O)[C@@H](OP(=O)(O)O)[C@H](OP(=O)(O)O)[C@@H](OP(=O)(O)O)[C@H]1OP(=O)(O)O` [InsP6], in assay [3], the IC50 result is reported as “InsP6 failed to inhibit Uba1 activation of Ub”.
`O=P(O)(O)O[C@@H]1[C@H](O)[C@H](O)[C@@H](OP(=O)(O)O)[C@H](OP(=O)(O)O)[C@H]1O` [InsP3, D-myo-Inositol 1,4,5-trisphosphate]: the melting temperature in assay [1] (100 μM InsP3) is 47 °C. The molecule also had a pKd in assay [2] of 6.61.
Take `O[C@H]1[C@H](O)[C@@H](O)[C@H](O)[C@@H](O)[C@H]1O` [myo-inositol]: the “binding test, method not given” value in assay [4] is given as “myo-inositol (which lacks phosphates) fails to bind with Uba6 with detectable affinity”.

As usually defined, the pKd is the Kd on a negative log10 scale, so that one unit is a factor of ten.

Values taken from article PMC9391358, “Crystal structures reveal catalytic and regulatory mechanisms of the dual-specificity ubiquitin/FAT10 E1 enzyme Uba6” (Nature Communications, 2022).
